The SangsterLogP compilation

Structure (SMILES)	logP
CCC(CC)CC(=O)O	2.19
O=C(O)CC1CCCCC1	2.31
CCC(C)(C)C(=O)O	1.9
CCCC(CCC)C(=O)O	2.57
CC1(C(=O)O)CCCCC1	2.38
CC(C)CCn1cnnn1	1.29
C/C=C/C(=C\CC)C(=O)O	2.27
CCCC(CC(C)=O)C(=O)O (configuration not stated)	1.31

Results, then the compound that gave them:

logP	Structure (SMILES)
2.3	CCCCN(CCCC)C(=O)CCC(=O)O
2.01	CCCCCCCc1nn[nH]n1
2.44	CCC=C(CCC)C(=O)O
3.34	CCCCC(CCCC)C(=O)O
